How the values were obtained:
Assay type in all cases: cell-based, mouse
[1] = test system: α7 integrin (LacZ reporter in α7βgal+/− myoblasts); assay: Myoblast α7+/LacZ integrin FDG assay (Burkin assay in myoblasts, 96-well); conditions: 96-well; for Burkin Assay in Myoblasts, signal relative to DMSO: α7+/LacZ myoblasts; for Burkin Assay in Myoblasts, value relative to DMSO: SU9516 analogs, N=3-6
[2] = test system: β-galactosidase in CMV-LacZ C2C12 myotubes; assay: CMV-LacZ secondary screen in C2C12 myotubes (β-Gal stabilizing assay); conditions: for CMV-LACZ in Myotubes, signal relative to DMSO: C2C12 CMV-LacZ myotubes, fold relative to DMSO; for CMV-LACZ in Myotubes, value relative to DMSO: SU9516 analogs, C2C12 CMV-LacZ, N=2
Procedure, shortened: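 β-gal stabilization was measured in C2C12 myoblasts or myotubes stably transfected with a CMV-driven LacZ construct, using the FDG β-gal assay. Compounds were tested in dose-response at 0.5, 1, 5, 10, 20 and 40 μM, with two replicates per point.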

[3] = test system: α7 integrin (LacZ reporter in α7+/LacZ myotubes); assay: Myotube α7 integrin FDG assay (Burkin assay in myotubes, 96-well); conditions: for Burkin Assay in Myotubes, value relative to DMSO: SU9516 analogs, 96-well, N=3-6
[4] = test system: β-galactosidase in CMV-LacZ C2C12 myoblasts; assay: CMV-LacZ secondary screen in C2C12 myoblasts (β-Gal stabilizing assay); conditions: for CMV-LACZ in Myoblasts (β-galactosidase activity relative to DMSO): CMV-LacZ C2C12 myoblasts; for CMV-LACZ in Myoblasts, value relative to DMSO: SU9516 analogs, C2C12 CMV-LacZ, N=2
Procedure, shortened: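 β-Gal level was the read-out, measured in a clonal C2C12 line expressing LacZ from a CMV promoter. Dose-response curves used six concentrations, 0.5 μM up to 40 μM, with duplicate points.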

CC1CCN(C(CNS(=O)(=O)c2ccccc2)c2ccccc2)CC1 (stereo not drawn) [MLS002171615-01]
Burkin Assay in Myoblasts, signal relative to DMSO ([1]; 0.5 uM): 1.052 | Burkin Assay in Myoblasts, signal relative to DMSO ([1]; 1 uM): 0.9407 | Burkin Assay in Myoblasts, signal relative to DMSO ([1]; 5 uM): 0.9747 | Burkin Assay in Myoblasts, signal relative to DMSO ([1]; 10 uM): 0.8859 | Burkin Assay in Myoblasts, signal relative to DMSO ([1]; 20 uM): 0.709 | Burkin Assay in Myoblasts, signal relative to DMSO ([1]; 40 uM): 0.6178 | CMV-LACZ in Myotubes, signal relative to DMSO ([2]; 0.5 uM): 0.9863 | CMV-LACZ in Myotubes, signal relative to DMSO ([2]; 1 uM): 0.7874 | CMV-LACZ in Myotubes, signal relative to DMSO ([2]; 5 uM): 0.9989 | CMV-LACZ in Myotubes, signal relative to DMSO ([2]; 10 uM): 0.9582 | CMV-LACZ in Myotubes, signal relative to DMSO ([2]; 20 uM): 1.0111 | CMV-LACZ in Myotubes, signal relative to DMSO ([2]; 40 uM): 1.0711 | Burkin Assay in Myotubes, α7 integrin LacZ reporter signal relative to DMSO ([3]; 0.5 uM): 1.107 | Burkin Assay in Myotubes, α7 integrin LacZ reporter signal relative to DMSO ([3]; 1 uM): 1.17 | Burkin Assay in Myotubes, α7 integrin LacZ reporter signal relative to DMSO ([3]; 5 uM): 0.9709 | Burkin Assay in Myotubes, α7 integrin LacZ reporter signal relative to DMSO ([3]; 10 uM): 0.9947 | Burkin Assay in Myotubes, α7 integrin LacZ reporter signal relative to DMSO ([3]; 20 uM): 0.8432 | Burkin Assay in Myotubes, α7 integrin LacZ reporter signal relative to DMSO ([3]; 40 uM): 0.8303 | CMV-LACZ in Myoblasts (β-galactosidase activity relative to DMSO) ([4]; 0.5 uM): 1.0498 | CMV-LACZ in Myoblasts (β-galactosidase activity relative to DMSO) ([4]; 1 uM): 1.3505 | CMV-LACZ in Myoblasts (β-galactosidase activity relative to DMSO) ([4]; 5 uM): 0.9273 | CMV-LACZ in Myoblasts (β-galactosidase activity relative to DMSO) ([4]; 10 uM): 0.9905 | CMV-LACZ in Myoblasts (β-galactosidase activity relative to DMSO) ([4]; 20 uM): 1.2159 | CMV-LACZ in Myoblasts (β-galactosidase activity relative to DMSO) ([4]; 40 uM): 0.6726

O=C1Nc2ccccc2/C1=C/c1cccnc1 [MLS000682748-01]
Burkin Assay in Myoblasts, value relative to DMSO ([1]; 0.5 uM): 1.259 | Burkin Assay in Myoblasts, value relative to DMSO ([1]; 1 uM): 1.162 | Burkin Assay in Myoblasts, value relative to DMSO ([1]; 5 uM): 0.8923 | Burkin Assay in Myoblasts, value relative to DMSO ([1]; 10 uM): 0.765 | Burkin Assay in Myoblasts, value relative to DMSO ([1]; 20 uM): 0.4669 | Burkin Assay in Myoblasts, value relative to DMSO ([1]; 40 uM): 0.2472 | CMV-LACZ in Myotubes, value relative to DMSO ([2]; 0.5 uM): 0.9356 | CMV-LACZ in Myotubes, value relative to DMSO ([2]; 1 uM): 0.8459 | CMV-LACZ in Myotubes, value relative to DMSO ([2]; 5 uM): 0.8790 | CMV-LACZ in Myotubes, value relative to DMSO ([2]; 10 uM): 0.9205 | CMV-LACZ in Myotubes, value relative to DMSO ([2]; 20 uM): 1.1753 | CMV-LACZ in Myotubes, value relative to DMSO ([2]; 40 uM): 1.1071 | Burkin Assay in Myotubes, value relative to DMSO ([3]; 0.5 uM): 0.9801 | Burkin Assay in Myotubes, value relative to DMSO ([3]; 1 uM): 1.211 | Burkin Assay in Myotubes, value relative to DMSO ([3]; 5 uM): 1.147 | Burkin Assay in Myotubes, value relative to DMSO ([3]; 10 uM): 1.085 | Burkin Assay in Myotubes, value relative to DMSO ([3]; 20 uM): 0.743 | Burkin Assay in Myotubes, value relative to DMSO ([3]; 40 uM): 0.6206 | CMV-LACZ in Myoblasts, value relative to DMSO ([4]; 0.5 uM): 0.9075 | CMV-LACZ in Myoblasts, value relative to DMSO ([4]; 1 uM): 0.9666 | CMV-LACZ in Myoblasts, value relative to DMSO ([4]; 5 uM): 1.0215 | CMV-LACZ in Myoblasts, value relative to DMSO ([4]; 10 uM): 0.9959 | CMV-LACZ in Myoblasts, value relative to DMSO ([4]; 20 uM): 0.3893 | CMV-LACZ in Myoblasts, value relative to DMSO ([4]; 40 uM): 0.2419

Cc1ccc2c(c1)/C(=C/c1ccccc1F)C(=O)N2 [MLS001202330-01]
Burkin Assay in Myoblasts, value relative to DMSO ([1]; 0.5 uM): 0.9738 | Burkin Assay in Myoblasts, value relative to DMSO ([1]; 1 uM): 1.028 | Burkin Assay in Myoblasts, value relative to DMSO ([1]; 5 uM): 0.9558 | Burkin Assay in Myoblasts, value relative to DMSO ([1]; 10 uM): 0.9341 | Burkin Assay in Myoblasts, value relative to DMSO ([1]; 20 uM): 0.8305 | Burkin Assay in Myoblasts, value relative to DMSO ([1]; 40 uM): 0.6468 | CMV-LACZ in Myotubes, value relative to DMSO ([2]; 0.5 uM): 0.8314 | CMV-LACZ in Myotubes, value relative to DMSO ([2]; 1 uM): 0.9562 | CMV-LACZ in Myotubes, value relative to DMSO ([2]; 5 uM): 0.9600 | CMV-LACZ in Myotubes, value relative to DMSO ([2]; 10 uM): 0.8717 | CMV-LACZ in Myotubes, value relative to DMSO ([2]; 20 uM): 0.9168 | CMV-LACZ in Myotubes, value relative to DMSO ([2]; 40 uM): 0.8242 | Burkin Assay in Myotubes, value relative to DMSO ([3]; 0.5 uM): 0.9709 | Burkin Assay in Myotubes, value relative to DMSO ([3]; 1 uM): 0.9174 | Burkin Assay in Myotubes, value relative to DMSO ([3]; 5 uM): 0.9123 | Burkin Assay in Myotubes, value relative to DMSO ([3]; 10 uM): 1.017 | Burkin Assay in Myotubes, value relative to DMSO ([3]; 20 uM): 0.6303 | Burkin Assay in Myotubes, value relative to DMSO ([3]; 40 uM): 0.6207 | CMV-LACZ in Myoblasts, value relative to DMSO ([4]; 0.5 uM): 0.7417 | CMV-LACZ in Myoblasts, value relative to DMSO ([4]; 1 uM): 0.9325 | CMV-LACZ in Myoblasts, value relative to DMSO ([4]; 5 uM): 1.0099 | CMV-LACZ in Myoblasts, value relative to DMSO ([4]; 10 uM): 0.9082 | CMV-LACZ in Myoblasts, value relative to DMSO ([4]; 20 uM): 0.9511 | CMV-LACZ in Myoblasts, value relative to DMSO ([4]; 40 uM): 0.7619

Cc1nnc(-c2ccc(N3CCOCC3)c([N+](=O)[O-])c2)o1 [MLS001359861-01]
Burkin Assay in Myoblasts, signal relative to DMSO ([1]; 0.5 uM): 0.9353 | Burkin Assay in Myoblasts, signal relative to DMSO ([1]; 1 uM): 0.9376 | Burkin Assay in Myoblasts, signal relative to DMSO ([1]; 5 uM): 0.9484 | Burkin Assay in Myoblasts, signal relative to DMSO ([1]; 10 uM): 0.9324 | Burkin Assay in Myoblasts, signal relative to DMSO ([1]; 20 uM): 0.8725 | Burkin Assay in Myoblasts, signal relative to DMSO ([1]; 40 uM): 0.9113 | CMV-LACZ in Myotubes, signal relative to DMSO ([2]; 0.5 uM): 0.8978 | CMV-LACZ in Myotubes, signal relative to DMSO ([2]; 1 uM): 0.9533 | CMV-LACZ in Myotubes, signal relative to DMSO ([2]; 5 uM): 0.9547 | CMV-LACZ in Myotubes, signal relative to DMSO ([2]; 10 uM): 1.1230 | CMV-LACZ in Myotubes, signal relative to DMSO ([2]; 20 uM): 0.9976 | CMV-LACZ in Myotubes, signal relative to DMSO ([2]; 40 uM): 0.9412 | Burkin Assay in Myotubes, α7 integrin LacZ reporter signal relative to DMSO ([3]; 0.5 uM): 1.095 | Burkin Assay in Myotubes, α7 integrin LacZ reporter signal relative to DMSO ([3]; 1 uM): 1.184 | Burkin Assay in Myotubes, α7 integrin LacZ reporter signal relative to DMSO ([3]; 5 uM): 0.9088 | Burkin Assay in Myotubes, α7 integrin LacZ reporter signal relative to DMSO ([3]; 10 uM): 0.876 | Burkin Assay in Myotubes, α7 integrin LacZ reporter signal relative to DMSO ([3]; 20 uM): 1.0337 | Burkin Assay in Myotubes, α7 integrin LacZ reporter signal relative to DMSO ([3]; 40 uM): 0.804 | CMV-LACZ in Myoblasts (β-galactosidase activity relative to DMSO) ([4]; 0.5 uM): 0.9444 | CMV-LACZ in Myoblasts (β-galactosidase activity relative to DMSO) ([4]; 1 uM): 0.9184 | CMV-LACZ in Myoblasts (β-galactosidase activity relative to DMSO) ([4]; 5 uM): 0.9009 | CMV-LACZ in Myoblasts (β-galactosidase activity relative to DMSO) ([4]; 10 uM): 0.8064 | CMV-LACZ in Myoblasts (β-galactosidase activity relative to DMSO) ([4]; 20 uM): 0.9074 | CMV-LACZ in Myoblasts (β-galactosidase activity relative to DMSO) ([4]; 40 uM): 1.0330

CC(C)Oc1ccc(C(=O)/C=C2/C(=O)Nc3ccccc32)cc1 [MLS001214276-01]
Burkin Assay in Myoblasts, value relative to DMSO ([1]; 0.5 uM): 1.328 | Burkin Assay in Myoblasts, value relative to DMSO ([1]; 1 uM): 1.222 | Burkin Assay in Myoblasts, value relative to DMSO ([1]; 5 uM): 0.6234 | Burkin Assay in Myoblasts, value relative to DMSO ([1]; 10 uM): 0.3235 | Burkin Assay in Myoblasts, value relative to DMSO ([1]; 20 uM): 0.2022 | Burkin Assay in Myoblasts, value relative to DMSO ([1]; 40 uM): 0.02694 | CMV-LACZ in Myotubes, value relative to DMSO ([2]; 0.5 uM): 0.7733 | CMV-LACZ in Myotubes, value relative to DMSO ([2]; 1 uM): 0.9141 | CMV-LACZ in Myotubes, value relative to DMSO ([2]; 5 uM): 2.0151 | CMV-LACZ in Myotubes, value relative to DMSO ([2]; 10 uM): 11.1000 | CMV-LACZ in Myotubes, value relative to DMSO ([2]; 20 uM): 0.5259 | CMV-LACZ in Myotubes, value relative to DMSO ([2]; 40 uM): 0.4976 | Burkin Assay in Myotubes, value relative to DMSO ([3]; 0.5 uM): 1.162 | Burkin Assay in Myotubes, value relative to DMSO ([3]; 1 uM): 1.197 | Burkin Assay in Myotubes, value relative to DMSO ([3]; 5 uM): 0.9019 | Burkin Assay in Myotubes, value relative to DMSO ([3]; 10 uM): 0.6945 | Burkin Assay in Myotubes, value relative to DMSO ([3]; 20 uM): 0.2362 | Burkin Assay in Myotubes, value relative to DMSO ([3]; 40 uM): 0.07736 | CMV-LACZ in Myoblasts, value relative to DMSO ([4]; 0.5 uM): 0.9516 | CMV-LACZ in Myoblasts, value relative to DMSO ([4]; 1 uM): 0.8731 | CMV-LACZ in Myoblasts, value relative to DMSO ([4]; 5 uM): 1.3014 | CMV-LACZ in Myoblasts, value relative to DMSO ([4]; 10 uM): 1.2231 | CMV-LACZ in Myoblasts, value relative to DMSO ([4]; 20 uM): 1.2922 | CMV-LACZ in Myoblasts, value relative to DMSO ([4]; 40 uM): 0.1781

— patent US9980943B2, “Methods of treating muscular dystrophy” (BOARD OF REGENTS OF THE NEVADA SYSTEM OF HIGHER EDUCATION, …, priority 2013, dated 2018)
